# What was measured:
# Neratinib/HKI272 = compound: CCOc1cc2ncc(C#N)c(Nc3ccc(OCc4ccccn4)c(Cl)c3)c2cc1NC(=O)/C=C/CN(C)C [Neratinib/HKI272]; test: increase in dead-cell fraction, 72 h; higher = more death;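 also: breast cancer cell lines in 384-well plates, stained with Hoechst plus LIVE/DEAD far red dye and imaged, cells above an LDR intensity threshold counted dead, Hoechst-negative corpses included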
# [1] = compound: CC(=O)c1c(C)c2cnc(Nc3ccc(N4CCNCC4)cn3)nc2n(C2CCCC2)c1=O; test: as above
# [2] = compound: CCN1CCN(Cc2ccc(Nc3ncc(F)c(-c4cc(F)c5nc(C)n(C(C)C)c5c4)n3)nc2)CC1; test: as above
# Flavopiridol = compound: CN1CC[C@H](c2c(O)cc(O)c3c(=O)cc(-c4ccccc4Cl)oc23)[C@H](O)C1 [Flavopiridol]; test: as above
# LEE011/Ribociclib = compound: CN(C)C(=O)c1cc2cnc(Nc3ccc(N4CCNCC4)cn3)nc2n1C1CCCC1 [LEE011/Ribociclib]; test: as above
# BSJ-03-123 = compound: CC(=O)c1c(C)c2cnc(Nc3ccc(N4CCN(CCOCCOCCOCCNC(=O)COc5cccc6c5C(=O)N(C5CCC(=O)NC5=O)C6=O)CC4)cn3)nc2n(C2CCCC2)c1=O [BSJ-03-123]; test: as above
# [3] = compound: CCc1cnn2c(NCc3ccc[n+]([O-])c3)cc(N3CCCC[C@H]3CCO)nc12; test: as above
# THZ1 = compound: CN(C)C/C=C/C(=O)Nc1ccc(C(=O)Nc2cccc(Nc3ncc(Cl)c(-c4c[nH]c5ccccc45)n3)c2)cc1 [THZ1]; test: as above
# [4] = compound: CC(=O)Nc1cccc(-n2c(=O)n(C3CC3)c(=O)c3c(Nc4ccc(I)cc4F)n(C)c(=O)c(C)c32)c1
# [5] = compound: CCC1=CN=CN=C1N2CCN(CC2)CC3=NC4=C(N3)C=C(C=C4)C(F)(F)F
# BSJ-01-175 = compound: CN(C)C/C=C/C(=O)Nc1ccc(O[C@@H]2CCC[C@@H](Nc3ncc(Cl)c(-c4c[nH]c5ccccc45)n3)C2)cc1 [BSJ-01-175]
# [6] = compound: CCN1CCN(Cc2ccc(Nc3ncc(F)c(-c4cc(F)c5nc(C)n(C(C)C)c5c4)n3)nc2)CC1
# [7] = compound: COc1ccc2c(c1)[C@]1(C[C@H]1c1ccc3c(/C=C/c4ccc(CN5C[C@@H](C)O[C@@H](C)C5)cc4)n[nH]c3c1)C(=O)N2
# AZD2014 = compound: CNC(=O)c1cccc(-c2ccc3c(N4CCOC[C@@H]4C)nc(N4CCOC[C@@H]4C)nc3n2)c1 [AZD2014]
# AZD7762 = compound: NC(=O)Nc1cc(-c2cccc(F)c2)sc1C(=O)N[C@H]1CCCNC1 [AZD7762]
# Ipatasertib/GDC0068 = compound: CC(C)NC[C@@H](C(=O)N1CCN(c2ncnc3c2[C@H](C)C[C@H]3O)CC1)c1ccc(Cl)cc1 [Ipatasertib/GDC0068]
# Tivantinib/ARQ197 = compound: O=C1NC(=O)[C@@H](c2cn3c4c(cccc24)CCC3)[C@@H]1c1c[nH]c2ccccc12 [Tivantinib/ARQ197]
# Vorinostat = compound: O=C(CCCCCCC(=O)Nc1ccccc1)NO [Vorinostat]
# AZD6738 = compound: C[C@@H]1COCCN1c1cc(C2([S@](C)(=N)=O)CC2)nc(-c2cc[nH]c3nccc2-3)n1 [AZD6738]
# 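For GR50, 72 h in this document: breast cancer and non-malignant breast epithelial cell lines, Deep Dye Drop or Dye Drop imaging, nine half-log doses, GR normalized to time-zero plates and DMSO-only controls.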
cell line,measurement,setting,value
MDAMB415,increase in dead-cell fraction,Neratinib/HKI272; 0.0003162 µM,-0.0004
same,increase in dead-cell fraction,Neratinib/HKI272; 0.001 µM,0
same,increase in dead-cell fraction,Neratinib/HKI272; 0.003162 µM,0.0031
same,increase in dead-cell fraction,Neratinib/HKI272; 0.01 µM,-0.0015
same,increase in dead-cell fraction,Neratinib/HKI272; 0.03162 µM,0.0006
same,increase in dead-cell fraction,Neratinib/HKI272; 0.1 µM,0.0036
same,increase in dead-cell fraction,Neratinib/HKI272; 0.3162 µM,0.0023
same,increase in dead-cell fraction,Neratinib/HKI272; 1 µM,0.0057
same,increase in dead-cell fraction,Neratinib/HKI272; 3.162 µM,0.017
same,increase in dead-cell fraction,[1]; 0.0003162 µM,0.0016
same,increase in dead-cell fraction,[1]; 0.001 µM,-0.0037
same,increase in dead-cell fraction,[1]; 0.003162 µM,0.0018
same,increase in dead-cell fraction,[1]; 0.01 µM,-0.0004
same,increase in dead-cell fraction,[1]; 0.03162 µM,0.0059
same,increase in dead-cell fraction,[1]; 0.1 µM,0.0074
same,increase in dead-cell fraction,[1]; 0.3162 µM,0.0128
same,increase in dead-cell fraction,[1]; 1 µM,0.0178
same,increase in dead-cell fraction,[1]; 3.162 µM,0.0141
same,increase in dead-cell fraction,[2]; 0.001 µM,0.0027
same,increase in dead-cell fraction,[2]; 0.003162 µM,0.004
same,increase in dead-cell fraction,[2]; 0.01 µM,0.0062
same,increase in dead-cell fraction,[2]; 0.03162 µM,0.015
same,increase in dead-cell fraction,[2]; 0.1 µM,0.0137
same,increase in dead-cell fraction,[2]; 0.3162 µM,0.021
same,increase in dead-cell fraction,[2]; 1 µM,0.0176
same,increase in dead-cell fraction,[2]; 3.162 µM,0.0092
same,increase in dead-cell fraction,[2]; 10 µM,0.0164
same,increase in dead-cell fraction,Flavopiridol; 0.0001 µM,0.0065
same,increase in dead-cell fraction,Flavopiridol; 0.0003162 µM,0.0005
same,increase in dead-cell fraction,Flavopiridol; 0.001 µM,0.0075
same,increase in dead-cell fraction,Flavopiridol; 0.003162 µM,0.0004
same,increase in dead-cell fraction,Flavopiridol; 0.01 µM,-0.0008
same,increase in dead-cell fraction,Flavopiridol; 0.03162 µM,0.002
same,increase in dead-cell fraction,Flavopiridol; 0.1 µM,0.0078
same,increase in dead-cell fraction,Flavopiridol; 0.3162 µM,0.0072
same,increase in dead-cell fraction,Flavopiridol; 1 µM,0.0932
same,increase in dead-cell fraction,LEE011/Ribociclib; 0.001 µM,0.0085
same,increase in dead-cell fraction,LEE011/Ribociclib; 0.003162 µM,0.0083
same,increase in dead-cell fraction,LEE011/Ribociclib; 0.01 µM,0.01
same,increase in dead-cell fraction,LEE011/Ribociclib; 0.03162 µM,0.0117
same,increase in dead-cell fraction,LEE011/Ribociclib; 0.1 µM,0.0179
same,increase in dead-cell fraction,LEE011/Ribociclib; 0.3162 µM,0.0109
same,increase in dead-cell fraction,LEE011/Ribociclib; 1 µM,0.0253
same,increase in dead-cell fraction,LEE011/Ribociclib; 3.162 µM,0.0174
same,increase in dead-cell fraction,LEE011/Ribociclib; 10 µM,0.0203
same,increase in dead-cell fraction,BSJ-03-123; 0.001 µM,-0.001
same,increase in dead-cell fraction,BSJ-03-123; 0.003162 µM,0.0018
same,increase in dead-cell fraction,BSJ-03-123; 0.01 µM,0.0044
same,increase in dead-cell fraction,BSJ-03-123; 0.03162 µM,0.0034
same,increase in dead-cell fraction,BSJ-03-123; 0.1 µM,0.0066
same,increase in dead-cell fraction,BSJ-03-123; 0.3162 µM,0.0057
same,increase in dead-cell fraction,BSJ-03-123; 1 µM,0.0048
same,increase in dead-cell fraction,BSJ-03-123; 3.162 µM,0.0092
same,increase in dead-cell fraction,BSJ-03-123; 10 µM,0.0219
same,increase in dead-cell fraction,[3]; 0.0001 µM,-0.001
same,increase in dead-cell fraction,[3]; 0.0003162 µM,0.0007
same,increase in dead-cell fraction,[3]; 0.001 µM,-0.0017
same,increase in dead-cell fraction,[3]; 0.003162 µM,0.0007
same,increase in dead-cell fraction,[3]; 0.01 µM,0.0031
same,increase in dead-cell fraction,[3]; 0.03162 µM,0.0447
same,increase in dead-cell fraction,[3]; 0.1 µM,0.152
same,increase in dead-cell fraction,[3]; 0.3162 µM,0.12
same,increase in dead-cell fraction,[3]; 1 µM,0.154
same,increase in dead-cell fraction,THZ1; 0.0001 µM,0.0048
same,increase in dead-cell fraction,THZ1; 0.0003162 µM,0.0014
same,increase in dead-cell fraction,THZ1; 0.001 µM,0.0046
same,increase in dead-cell fraction,THZ1; 0.003162 µM,-0.0013
same,increase in dead-cell fraction,THZ1; 0.01 µM,0.0061
same,increase in dead-cell fraction,THZ1; 0.03162 µM,0.0106
same,increase in dead-cell fraction,THZ1; 0.1 µM,0.0295
same,increase in dead-cell fraction,THZ1; 0.3162 µM,0.0604
same,increase in dead-cell fraction,THZ1; 1 µM,0.13
same,"GR50, 72 h",[4],0.278 µM
same,"GR50, 72 h",[5],8.3 µM
same,"GR50, 72 h",BSJ-01-175,0.0616 µM
same,"GR50, 72 h",[6],0.00897 µM
same,"GR50, 72 h",[7],0.0239 µM
same,"GR50, 72 h",AZD2014,0.006 µM
same,"GR50, 72 h",AZD7762,0.475 µM
same,"GR50, 72 h",Ipatasertib/GDC0068,0.0507 µM
same,"GR50, 72 h",Tivantinib/ARQ197,1.5 µM
same,"GR50, 72 h",Vorinostat,2.92 µM
same,"GR50, 72 h",AZD6738,> 10 µM

# Reference: the supplement of paper PMC9663587
